Each structure is given as a SMILES string.

EC50 data for 13 molecules are collected here from patent US7550629B2, “Trifluoromethyl-containing phenylsulfonamide beta amyloid inhibitors” (Wyeth, priority 2006, dated 2009).

For one assay, the system named is beta amyloid 40. As to the kind of experiment: Aβ40/42 ELISA Assay: Aβ40. Format: cell-based. Particulars: Cricetulus griseus; CHO cells carrying the APP-REP-NL plasmid, 22 hours, sandwich ELISA of medium. The method, then: (§1) Pharmacology: Aβ40/42 ELISA Assay
(§2) Compounds are diluted from DMSO stocks to 2 μM and below in a cell culture medium. Compounds are then applied to CHO cells carrying the APP-REP-NL plasmid [Sudhir et. al, J. Biol. Chem. 267:25602-25608 (1992)] for a period of 22 hours. After the conditioning period, medium is collected, diluted in assay buffer containing protein, and samples, controls, and synthetic peptide standards are incubated on a prepared ELISA plate. Using a sandwich ELISA with antibodies specifically directed against the carboxyl terminus of beta amyloid 40 or 42 [analogous to the method reported by Haugabook et al., J. Neurosci. Methods 108:171-179 (2001) but using goat anti-mouse IgGl (source: Southern Biotech) as the anchor, 6E10 as the capture antibody (Source: SENETEK), rabbit antiαβ40 and antiαβB42 (source: QCB) and APL-donkey anti-rabbit IgG (H+L, source: Southern Biotech) as the detection antibody], the effect of the compound treatment on the cellular production of extracellular beta amyloid is quantified. Cells treated with compound are subsequently incubated in cell culture medium containing […]. After a short incubation period, MTS/medium containing plates are read in a spectrophotometer to determine the extent to which compound toxicity affected the cell's metabolism and ability to synthesize beta amyloid.
(§3) Test Samples: compound samples are supplied as 20 mM stock solutions in a 100% DMSO solution.
(§4) APP-REP-NL cells: Qualified cell lines are carried from week to week using 1:100 dilutions and are cultured in DMEM supplemented with 1× antibiotic/antimycotic, 200 μg/ml of G418 antibiotic, and 10% certified fetal calf serum. Cells are also banked in liquid nitrogen. Periodically, beta amyloid production is assessed, and cells are either kept in culture or replaced with progenitors at full expression.
(§5) Antibodies: Are from certified lots that have already been qualified in this assay. Antibodies are stored in small frozen aliquots at −80° C. that are thawed and used.
(§6) A compound is considered active if it has an EC50 for Aβ 40 reduction of <100 μM and no toxicity at doses in the vicinity the EC50.

In the next assay the test system is beta amyloid 42. The experiment in a line: Aβ40/42 ELISA Assay: Aβ42. Format: cell-based. Particulars: Cricetulus griseus; CHO cells carrying the APP-REP-NL plasmid, 22 hours, sandwich ELISA of medium. The method, then: as §1, §2, §3, §4, §5, §6

Regarding `Cc1ccc(S(=O)(=O)NC(CO)C(C(F)(F)F)C(F)(F)F)cc1` (centres unmarked) [Example 14, 4-methyl-N-[3,3,3-trifluoro-1-(hydroxymethyl)-2-(trifluoromethyl)propyl]benzenesulfonamide], the EC50 was determined as 1.5 µM in the assay with beta amyloid 40 and 1.26 µM in the assay on beta amyloid 42.

On to `N#Cc1ccc(S(=O)(=O)NC(CO)C(C(F)(F)F)C(F)(F)F)cc1` (centres unmarked) [Example 18, 4-Cyano-N-(3,3,3-trifluoro-1-hydroxymethyl-2-trifluoromethyl-propyl)-benzenesulfonamide], for which the EC50 with beta amyloid 40 was determined as 90.7 µM; in the assay with beta amyloid 42, 101 µM.

As for `C[C@@H]([C@@H](CO)NS(=O)(=O)c1ccc(C(F)(F)F)cc1)C(F)(F)F` [Example 47, N-[(1S,2S)-3,3,3-Trifluoro-1-(hydroxymethyl)-2-methylpropyl]-4-(trifluoromethyl)benzenesulfonamide], the EC50 in the assay on beta amyloid 40 was 1.4 µM; with beta amyloid 42, 1.17 µM.

Consider `O=S(=O)(N[C@H](CO)C(C(F)(F)F)C(F)(F)F)c1ccc(Cl)c(Cl)c1` [Example 41, (S)-3,4-Dichloro-N-[3,3,3-trifluoro-1-(hydroxymethyl)-2-(trifluoromethyl)propyl]benzene sulfonamide], for which the values for the EC50 in the assay on beta amyloid 40 and in the assay on beta amyloid 42 were 5.57 µM and 5.37 µM, respectively.

Turning to `O=S(=O)(NC(CO)C(C(F)(F)F)C(F)(F)F)c1cc(F)cc(F)c1` (centres unmarked) [Example 22, 3,5-Difluoro-N-(3,3,3-trifluoro-1-hydroxymethyl-2-trifluoromethyl-propyl)-benzenesulfonamide], the values for the EC50 with beta amyloid 40 and in the assay on beta amyloid 42 were 5.72 µM and 6.34 µM, respectively.

As for `COc1ccc(S(=O)(=O)NC(CO)C(C(F)(F)F)C(F)(F)F)cc1` (centres unmarked) [Example 11, 4-methoxy-N-[3,3,3-trifluoro-1-(hydroxymethyl)-2-(trifluoromethyl)propyl]benzenesulfonamide], the EC50 in the assay on beta amyloid 40 is 6.81 µM; in the assay on beta amyloid 42, 6.44 µM.

Take `C[C@@H]([C@@H](CO)NS(=O)(=O)c1ccc(Cl)cc1)C(F)(F)F` [Example 43, 4-Chloro-N-[(1S,2S)-3,3,3-trifluoro-1-(hydroxymethyl)-2-methylpropyl]benzenesulfonamide]: the figures for the EC50 with beta amyloid 40 and in the assay on beta amyloid 42 were 0.423 µM and 0.384 µM, respectively.

With `O=S(=O)(NC(CO)C(C(F)(F)F)C(F)(F)F)c1ccc(C(F)(F)F)cc1` (centres unmarked) [Example 17, N-[3,3,3-trifluoro-1-(hydroxymethyl)-2-(trifluoromethyl)propyl]-4-(trifluoromethyl)benzenesulfonamide], the EC50 in the assay on beta amyloid 40 came out at 2.29 µM; with beta amyloid 42, 1.94 µM.

On to `O=S(=O)(NC(CO)C(C(F)(F)F)C(F)(F)F)c1cccc(Cl)c1` (centres unmarked) [Example 29, 3-chloro-N-(3,3,3-trifluoro-1-hydroxymethyl-2-trifluoromethyl-propyl)-benzenesulfonamide], for which the EC50 amounted to 24.2 µM in the assay on beta amyloid 40 and 37.2 µM in the assay on beta amyloid 42.

With `C[C@H]([C@@H](CO)NS(=O)(=O)c1ccc(Cl)cc1)C(F)(F)F` [Example 44, 4-Chloro-N-[(1S,2R)-3,3,3-trifluoro-1-(hydroxymethyl)-2-methylpropyl]benzenesulfonamide], the EC50 was found to be 2.94 µM in the assay with beta amyloid 40 and 3.51 µM with beta amyloid 42.

For `O=S(=O)(NC(CO)C(C(F)(F)F)C(F)(F)F)c1ccc(OC(F)F)cc1` (centres unmarked) [Example 7, 4-(difluoromethoxy)-N-[3,3,3-trifluoro-1-(hydroxymethyl)-2-(trifluoromethyl)propyl]benzenesulfonamide], the EC50 in the assay with beta amyloid 40 was 4.46 µM; with beta amyloid 42, 4.02 µM.

As for `O=S(=O)(NC(CO)C(C(F)(F)F)C(F)(F)F)c1ccc(F)c(Cl)c1` (centres unmarked) [Example 39, 3-chloro-4-fluoro-N-[3,3,3-trifluoro-1-(hydroxymethyl)-2-(trifluoromethyl)propyl]benzenesulfonamide], the EC50 with beta amyloid 40 came to 6.72 µM; with beta amyloid 42, 8.62 µM.

Take `COc1cc(S(=O)(=O)NC(CO)C(C(F)(F)F)C(F)(F)F)ccc1Cl` (centres unmarked) [Example 3, 4-Chloro-3-methoxy-N-(3,3,3-trifluoro-1-hydroxymethyl-2-trifluoromethyl-propyl)-benzenesulfonamide]: the figures for the EC50 with beta amyloid 40 and in the assay with beta amyloid 42 were 9.94 µM and 13.8 µM, respectively.
